Data reported in US12187713B2, “Immunomodulators, compositions and methods thereof” (Betta Pharmaceuticals Co., Ltd, priority 2019, dated 2025).

Molecular target: PD-1/PD-L1 (Homo sapiens (Human), UniProt Q9NZQ7)
Assay: PD-1/PD-L1 Binding Assay (Alphascreen)
Procedure, shortened: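 PD-1/PD-L1 binding detected by anti-6×His acceptor and streptavidin donor beads after 120 min in the dark at 25 °C. Beforehand, the two proteins were incubated 15 min at 25 °C with inhibitor at 0.015–300 nM (1% DMSO). IC50 comes from a log concentration–response curve.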

Sequence of PD-1/PD-L1 (Q9NZQ7 19-238): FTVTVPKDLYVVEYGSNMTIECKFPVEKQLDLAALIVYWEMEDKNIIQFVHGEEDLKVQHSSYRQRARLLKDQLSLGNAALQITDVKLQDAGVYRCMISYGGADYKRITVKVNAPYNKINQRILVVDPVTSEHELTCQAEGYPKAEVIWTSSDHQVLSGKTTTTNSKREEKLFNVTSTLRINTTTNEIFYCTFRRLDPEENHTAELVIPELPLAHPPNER

SMILES | IC50 (range symbols) [nM] | IC50 (numeric values) [nM]
Cc1c(-c2nc3cc(CN4CC[C@H](C(=O)O)C4)c(OC(F)F)cc3o2)cccc1-c1cccc(-c2nc3cc(CN4CC[C@H](C)C4)cc(C#N)c3o2)c1C [Example 259, (S)-1-((2-(3′-(7-cyano-5-(((S)-3-methylpyrrolidin-1-yl)methyl)benzo[d]oxazol-2-yl)-2,2′-dimethyl-[1,1′-biphenyl]-3-yl)-6-(difluoromethoxy)benzo[d]oxazol-5-yl)methyl)pyrrolidine-3-carboxylic acid] | 0.1 to 5 | –
Cc1c(-c2nc3cc(CN4CCC[C@H]4C(=O)O)c(OC(F)F)cc3o2)cccc1-c1cccc(N2CCC(N3CCCC3)CC2)c1C [Example 306, ((6-(difluoromethoxy)-2-(2,2′-dimethyl-3′-(4-(pyrrolidin-1-yl)piperidin-1-yl)-[1,1′-biphenyl]-3-yl)benzo[d]oxazol-5-yl)methyl)-L-proline] | – | 1.5
Cc1c(-c2ccc(C3CCCN3)cc2)cccc1-c1cccc(-c2nc3cc(CN4CCC[C@H]4C(=O)O)c(OC(F)F)cc3o2)c1C (stereo partly drawn) [Example 255, ((6-(difluoromethoxy)-2-(2,2′-dimethyl-4″- (pyrrolidin-2-yl)-[1,1′:3′,1″-terphenyl]-3-yl)benzo[d]oxazol-5-yl)methyl)-L-proline] | – | 2.3
Cc1c(-c2nc3cc(CN4CC[C@H](C(=O)O)C4)c(OC(F)F)cc3o2)cccc1-c1cccc(-c2nc3cc(CN4CCC(C)C4)cc(C(F)(F)F)c3o2)c1C (stereo partly drawn) [Example 92, (3S)-1-((6-(difluoromethoxy)-2-(2,2′-dimethyl-3′-(5-((3-methylpyrrolidin-1-yl)methyl)-7-(trifluoromethyl)benzo [d]oxazol-2-yl)-[1,1′-biphenyl]-3-yl)benzo[d]oxazol-5-yl)methyl)pyrrolidine-3-carboxylic acid] | 0.1 to 5 | –
Cc1c(-c2nc3cc(CN4CCC[C@H]4C(=O)O)c(OC(F)F)cc3o2)cccc1-c1cccc(-c2nc3cc(CNCC(C)(C)O)cc(C#N)c3o2)c1C [Example 138, ((2-(3′-(7-cyano-5-(((2-hydroxy-2-methylpropyl)amino)methyl)benzo[d]oxazol-2-yl)-2,2′-dimethyl-[1,1′-biphenyl]-3-yl)-6-(difluoromethoxy)benzo[d]oxazol-5-yl)methyl)-L-proline] | 0.1 to 5 | –
CC(=O)NCCNCc1cc(Cl)c(OCc2cccc(-c3cccc(-c4nc5cc(CN6CCC[C@H]6C(=O)O)c(OC(F)F)cc5o4)c3C)c2C)cc1OCc1cccc(C#N)c1 [Example 210] | 0.1 to 5 | –
Cc1c(-c2nc3cc(CN4CC(S(C)(=O)=O)C4)c(OC(F)F)cc3o2)cccc1-c1cccc(-c2nc3cc(CN4CCC[C@H]4C(=O)O)c(OC(F)F)cc3o2)c1C [Example 41, ((6-(difluoromethoxy)-2-(3′-(6-(difluoromethoxy)-5-((3-(methylsulfonyl)azetidin-1-yl)methyl)benzo[d]oxazol-2-yl)-2,2′-dimethyl-[1,1′-biphenyl]-3-yl)benzo[d]oxazol-5-yl)methyl)-L-proline] | 5 to 50 | –
Cc1c(-c2nc3cc(CN(C)[C@@H]4CCC[C@@H]4O)c(OC(F)F)cc3o2)cccc1-c1cccc(-c2nc3cc(CN4CCC[C@H]4C(=O)O)c(OC(F)F)cc3o2)c1C [Example 1, ((6-(difluoromethoxy)-2-(3′-(6-(difluoromethoxy)-5-((((1R,2S)-2-hydroxycyclopentyl)(methyl)amino)methyl)benzo[d]oxazol-2-yl)-2,2′-dimethyl-[1,1′-biphenyl]-3-yl)benzo[d]oxazol-5-yl)methyl)-L-proline] | – | 0.89
Cc1c(-c2nc3cc(CN4CCC[C@H]4C(=O)O)c(OC(F)F)cc3o2)cccc1-c1cccc(-c2nc3cc(CN4CCCC4)c(F)c(F)c3o2)c1C#N [Example 118, ((2-(2′-cyano-3′-(6,7-difluoro-5-(pyrrolidin-1-ylmethyl)benzo[d]oxazol-2-yl)-2-methyl-[1,1′-biphenyl]-3-yl)-6-(difluoromethoxy)benzo[d]oxazol-5-yl)methyl)-L-proline] | – | 78
Cc1c(-c2nc3cc(CN4CCC[C@H]4C(=O)O)c(OC(F)F)cc3o2)cccc1-c1cccc(-c2nc3cc(CN4CC(N(C)C)C4)cnc3o2)c1C [Example 116, ((6-(difluoromethoxy)-2-(3′-(6-((3-(dimethylamino)azetidin-1-yl)methyl)oxazolo [5,4-b]pyridin-2-yl)-2,2′-dimethyl-[1,1′-biphenyl]-3-yl)benzo[d]oxazol-5-yl)methyl)-L-proline] | 0.1 to 5 | –
CNCc1cc2nc(-c3cccc(-c4cccc(-c5nc6cc(CN7CCC[C@H]7C(=O)O)c(OC(F)F)cc6o5)c4C)c3C)oc2cc1OCc1ccc(S(C)(=O)=O)cc1 [Example 125, ((6-(difluoromethoxy)-2-(2,2′-dimethyl-3′-(5-((methylamino)methyl)-6-((4-(methylsulfonyl)benzyl)oxy)benzo[d]oxazol-2-yl)-[1,1′-biphenyl]-3-yl)benzo[d]oxazol-5-yl)methyl)-L-proline] | 0.1 to 5 | –
Cc1c(-c2nc3cc(CN4CCC[C@@H]4C(=O)O)c(OC(F)F)cc3o2)cccc1-c1cccc(-c2nc3cc(CN4CC(C)(C)C4)c(OC(F)F)cc3o2)c1C#N [Example 87, ((2-(2′-cyano-3′-(6-(difluoromethoxy)-5-((3,3-dimethylazetidin-1-yl)methyl)benzo[d]oxazol-2-yl)-2-methyl-[1,1′-biphenyl]-3-yl)-6-(difluoromethoxy)benzo[d]oxazol-5-yl)methyl)-D-proline] | 0.1 to 5 | –
Cc1c(-c2nc3cc(CN4CCC[C@H]4C(=O)O)c(OC(F)F)cc3o2)cccc1-c1cccc(-c2nc3cc(CNC4(C)COC4)cc(C#N)c3o2)c1C [Example 133, ((2-(3′-(7-cyano-5-(((3-methyloxetan-3-yl)amino)methyl)benzo[d]oxazol-2-yl)-2,2′-dimethyl-[1,1′-biphenyl]-3-yl)-6-(difluoromethoxy)benzo[d]oxazol-5-yl)methyl)-L-proline] | 0.1 to 5 | –

Results, then the compound that gave them:

IC50 (range symbols) [nM] | IC50 (numeric values) [nM] | SMILES
5 to 50 | – | Cc1c(-c2nc3cc(CN4CC(=O)C4)c(OC(F)F)cc3o2)cccc1-c1cccc(-c2nc3cc(CN4CCC[C@H]4C(=O)O)c(OC(F)F)cc3o2)c1C [Example 46, ((6-(difluoromethoxy)-2-(3′-(6-(difluoromethoxy)-5-((3-oxoazetidin-1-yl)methyl)benzo[d]oxazol-2-yl)-2,2′-dimethyl-[1,1′-biphenyl]-3-yl)benzo[d]oxazol-5-yl)methyl)-L-proline]
0.1 to 5 | – | Cc1c(-c2nc3cc(CN4CC5(CCNCC5)C4)c(OC(F)F)cc3o2)cccc1-c1cccc(-c2nc3cc(CN4CCC[C@H]4C(=O)O)c(OC(F)F)cc3o2)c1C [Example 51, ((2-(3′-(5-((2,7-diazaspiro[3.5]nonan-2-yl)methyl)-6-(difluoromethoxy)benzo[d]oxazol-2-yl)-2,2′-dimethyl-[1,1′-biphenyl]-3-yl)-6-(difluoromethoxy)benzo[d]oxazol-5-yl)methyl)-L-proline]
5 to 50 | – | Cc1c(-c2nc3cc(CN4CCC[C@H]4C(=O)O)c(OC(F)F)cc3o2)cccc1-c1cccc(-c2nc3cc(CN4CC(N5CCOCC5)C4)cc(C#N)c3o2)c1C [Example 148, ((2-(3′-(7-cyano-5-((3-morpholinoazetidin-1-yl)methyl)benzo[d]oxazol-2-yl)-2,2′-dimethyl-[1,1′-biphenyl]-3-yl)-6-(difluoromethoxy)benzo[d]oxazol-5-yl)methyl)-L-proline]
– | 1.9 | Cc1c(-c2nc3cc(CNCCO)c(OCc4ccc(C#N)nc4)cc3o2)cccc1-c1cccc(-c2nc3cc(CN4CCC[C@H]4C(=O)O)c(OC(F)F)cc3o2)c1C [Example 119, ((2-(3′-(6-((6-cyanopyridin-3-yl)methoxy)-5-(((2-hydroxyethyl)amino)methyl)benzo[d]oxazol-2-yl)-2,2′-dimethyl-[1,1′-biphenyl]-3-yl)-6-(difluoromethoxy)benzo[d]oxazol-5-yl)methyl)-L-proline]
0.1 to 5 | – | Cc1c(-c2ccc(CN3CCCC3)cn2)cccc1-c1cccc(-c2nc3cc(CN4CCC[C@H]4C(=O)O)c(OC(F)F)cc3o2)c1C [Example 264, ((6-(difluoromethoxy)-2-(2,2′-dimethyl-3′-(5-(pyrrolidin-1-ylmethyl)pyridin-2-yl)-[1,1′-biphenyl]-3-yl)benzo[d]oxazol-5-yl)methyl)-L-proline]
0.1 to 5 | – | Cc1c(Nc2nccc3cc(CN4CCC(O)C4)cnc23)cccc1-c1cccc(-c2nc3cc(CN4CCC[C@@H]4C(=O)O)c(OC(F)F)cc3o2)c1C (stereo partly drawn) [Example 182, ((6-(difluoromethoxy)-2-(3′-((3-((3-hydroxypyrrolidin-1-yl)methyl)-1,7-naphthyridin-8-yl)amino)-2,2′-dimethyl-[1,1′-biphenyl]-3-yl)benzo[d]oxazol-5-yl)methyl)-D-proline]
0.1 to 5 | – | Cc1c(-c2nc3cc(CN[C@@H]4CCC[C@@H]4O)ccc3o2)cccc1-c1cccc(-c2nc3cc(CN4CCC[C@@H]4C(=O)O)c(OC(F)F)cc3o2)c1C [Example 310, ((6-(difluoromethoxy)-2-(3′-(5-((((1R,2S)-2-hydroxycyclopentyl)amino)methyl)benzo[d]oxazol-2-yl)-2,2′-dimethyl-[1,1′-biphenyl]-3-yl)benzo[d]oxazol-5-yl)methyl)-D-proline]
5 to 50 | – | Cc1c(-c2nc3c(o2)CCN(CC(N)=O)C3)cccc1-c1cccc(-c2nc3cc(CN4CCC[C@H]4C(=O)O)c(OC(F)F)cc3o2)c1C [Example 196, ((2-(3′-(5-(2-amino-2-oxoethyl)-4,5,6,7-tetrahydrooxazolo[4,5-c]pyridin-2-yl)-2,2′-dimethyl-[1,1′-biphenyl]-3-yl)-6-(difluoromethoxy)benzo[d]oxazol-5-yl)methyl)proline]
0.1 to 5 | – | Cc1c(-c2nc3cc(CN4CCC[C@H]4C(=O)O)c(OC(F)F)cc3o2)cccc1-c1cccc(-c2nc3cc(CN4CC(C)C(N(C)C)C4)cc(C#N)c3o2)c1C (stereo partly drawn) [Example 158, ((2-(3′-(7-cyano-5-((3-(dimethylamino)-4-methylpyrrolidin-1-yl)methyl)benzo[d]oxazol-2-yl)-2,2′-dimethyl-[1,1′-biphenyl]-3-yl)-6-(difluoromethoxy)benzo[d]oxazol-5-yl)methyl)-L-proline]
